For series [1] the following is noted: Crystal; DSC.
A short description of series [2]: Molar enthalpy of transition or fusion. Particulars: Crystal; DSC.

± gives the expanded uncertainty stated by the source.

This note sets out measurements from the NIST ThermoML archive (doi:10.1021/acs.jced.8b00196).

For the molecule `O=C(c1ccccc1)c1ccccc1` [benzophenone], in series [1], the Triple point temperature worked out at 323.4 ± 2.1 K. Besides, the “Molar enthalpy of transition or fusion” value in series [2] stood at 4.21 ± 0.311 kcal/mol.
